Assay results as given in US20110152332A1, “Pesticidal Heterocyclic Compounds” (Bayer CropScience AG, priority 2009, published 2011).

Columns and labels:
Assay type in all cases: in vivo
[1] = tested on: Tobacco cutworm (Spodoptera litura) larvae; test: Test against tobacco cutworm (Spodoptera litura) larvae, leaf dip; conditions: active compound concentration 100 ppm; third instar larvae on dipped sweet potato leaves; after 7 days
Experimental: (§1) Unless described otherwise, the test solutions were prepared as follows:
(§2) The active compound, 1 part by weight of the active compound was admixed with the solvent in the above described amount which contains the emulsifying agent in the above described amount. The mixture was then diluted with water to specific concentration.
(§3) In order to prepare the test solution containing the active compound, 1 part by weight of the active compound was admixed with 3 parts by weight of the solvent dimethyl formamide which contains 1 part by weight of the emulsifying agent polyoxyethylene alkylphenyl ether. This mixture is then diluted with water to the specific concentration.
(§4) Solvent: dimethyl formamide, 3 parts by weight; emulsifying agent: polyoxyethylene alkylphenyl ether, 1 part by weight
Leaves of sweet potato were immersed in the test solution at the appropriate concentration, and the leaves were dried in air. The leaves were then placed in a petri dish having a diameter of 9 cm, and ten Spodoptera litura at third instar larvae were released therein. The petri dishes were placed in a temperature-controlled chamber at 25° C. After 2 days and 4 days more sweet potato leaves were added. After 7 days, the number of dead larvae was counted to calculate the insecticidal activity. An insecticidal activity of 100% means that all larvae were killed, whereas an insecticidal activity of 0% means that no larva was killed. In the current test, the results of two petri dishes for each treatment were averaged.

[2] = tested on: Two-spotted spider mite (Tetranychus urticae); test: Test against two-spotted spider mite (Tetranychus urticae), spray; conditions: active compound concentration 100 ppm; adult mites on kidney bean, sprayed; after 7 days
Experimental: as §1, §2, §3, §4
50 to 100 adult mites of Tetranychus urticae were inoculated to leaves of kidney bean at two-leaf stage planted in a pot of 6 cm in diameter. After one day, test solution at the appropriate concentration was sprayed thereon in a sufficient amount using a spray gun. After the spraying, the plant pot was placed inside a greenhouse, and after 7 days, the acaricidal activity was calculated. An acaricidal activity of 100% means that all mites were killed, whereas an acaricidal activity of 0% means that no mite was killed.

[3] = tested on: Cucurbit leaf beetle (Aulacophora femoralis); test: Test against cucurbit leaf beetle (Aulacophora femoralis), leaf dip; conditions: active compound concentration 100 ppm; second instar larvae on dipped cucumber leaves; after 7 days
Experimental: as §1, §2, §3, §4
Leaves of cucumber were immersed in the test solution at the appropriate concentration, and the leaves were dried in air. The leaves were then put in a plastic cup containing sterilized black soil and five Aulacophora femoralis at second instar larvae were released in the cup. The cups were placed in a temperature-controlled chamber at 25° C. After 7 days, the number of dead larvae was counted, and thus the insecticidal activity was calculated. An insecticidal activity of 100% means that all larvae were killed, whereas an insecticidal activity of 0% means that no larva was killed.

Structure (SMILES) | insecticidal activity [1] [%] | acaricidal activity [2] [%] | insecticidal activity [3] [%]
CCCC(=O)NCc1ccc(N2CC(c3cc(Cl)c(Cl)c(Cl)c3)(C(F)(F)F)OC2=O)cc1C(F)(F)F (stereo not drawn) [Compound 1-18] | 100 |  | 
CS(=O)(=O)CC(=O)NCc1ccc(N2CC(c3cc(C(F)(F)F)cc(C(F)(F)F)c3)(C(F)(F)F)OC2=O)cc1C(F)(F)F (stereo not drawn) [Compound 1-136] | 100 | 100 | 100
O=C(CC1CC1)NCc1ccc(N2CC(c3cccc(C(F)(F)F)c3)(C(F)(F)F)OC2=O)cc1C(F)(F)F (stereo not drawn) [Compound 1-76] | 100 | 100 | 100
O=C(NCc1ccc(N2CC(c3cc(Cl)c(Cl)c(Cl)c3)(C(F)(F)F)OC2=O)cc1C(F)(F)F)C1CC1 (stereo not drawn) [Compound 1-19] | 100 |  | 100
CCC(=O)N[C@H](C)c1ccc(N2CC(c3cc(Cl)c(Cl)c(Cl)c3)(C(F)(F)F)OC2=O)cc1 (stereo partly drawn) [Compound 1-371-b] | 100 |  | 
C[C@H](NC(=O)C1CC1)c1ccc(N2CC(c3cc(Cl)cc(Cl)c3)(C(F)(F)F)OC2=O)cc1 (stereo partly drawn) [Compound 1-345-a] | 100 | 100 | 
C[C@H](NC(=O)C1CC1)c1ccc(N2CC(c3cc(Cl)c(Cl)c(Cl)c3)(C(F)(F)F)OC2=O)cc1 (stereo partly drawn) [Compound 1-373-a] | 100 | 100 | 100
O=C(CC(F)(F)F)NC1CCc2cc(N3CC(c4cc(Cl)c(Cl)c(Cl)c4)(C(F)(F)F)OC3=O)ccc21 (stereo not drawn) [Compound 4-35] | 100 | 100 | 100
CC(C)(C)OC(=O)NCc1ccc(N2CC(c3cc(Cl)c(Cl)c(Cl)c3)(C(F)(F)F)OC2=O)cc1C(F)(F)F (stereo not drawn) [Compound 1-28] | 100 |  | 100
O=C(CC1CC1)NCc1ccc(N2CC(c3cc(Cl)c(Cl)c(Cl)c3)(C(F)(F)F)OC2=O)cc1C(F)(F)F (stereo not drawn) [Compound 1-20] | 100 |  | 
O=C(NCc1ccc(N2CC(c3cc(C(F)(F)F)cc(C(F)(F)F)c3)(C(F)(F)F)OC2=O)cc1C(F)(F)F)C1CC1 (stereo not drawn) [Compound 1-131] | 100 |  | 100
CC(=O)NCc1ccc(N2CC(c3cc(C(F)(F)F)cc(C(F)(F)F)c3)(C(F)(F)F)OC2=O)cc1Cl (stereo not drawn) [Compound 1-142] | 100 |  | 100
NCc1ccc(N2CC(c3cc(Cl)c(Cl)c(Cl)c3)(C(F)(F)F)OC2=O)cc1C(F)(F)F (stereo not drawn) [Compound 1-15] | 100 |  | 
CC(=O)NCc1ccc(N2CC(c3cc(C(F)(F)F)cc(C(F)(F)F)c3)(C(F)(F)F)OC2=O)cc1C (stereo not drawn) [Compound 1-156] | 100 |  | 
O=C(NCc1ccc(N2CC(c3cccc(C(F)(F)F)c3)(C(F)(F)F)OC2=O)cc1C(F)(F)F)C1CC1 (stereo not drawn) [Compound 1-75] | 100 | 100 | 100
CC(=O)NCc1ccc(N2CC(c3cccc(C(F)(F)F)c3)(C(F)(F)F)OC2=O)cc1C(F)(F)F (stereo not drawn) [Compound 1-72] | 100 |  | 100
O=C(CC(F)(F)F)NCc1ccc(N2CC(c3cccc(C(F)(F)F)c3)(C(F)(F)F)OC2=O)cc1C(F)(F)F (stereo not drawn) [Compound 1-77] | 100 |  | 100
O=C(CC(F)(F)F)NCc1ccc(N2CC(c3cc(C(F)(F)F)cc(C(F)(F)F)c3)(C(F)(F)F)OC2=O)cc1C(F)(F)F (stereo not drawn) [Compound 1-133] | 100 | 100 | 100
CCC(=O)NC1CCc2cc(N3CC(c4cc(Cl)c(Cl)c(Cl)c4)(C(F)(F)F)OC3=O)ccc21 (stereo not drawn) [Compound 4-31] | 100 | 100 | 100
COCCC(=O)NCc1ccc(N2CC(c3cc(Cl)c(Cl)c(Cl)c3)(C(F)(F)F)OC2=O)cc1C(F)(F)F (stereo not drawn) [Compound 1-25] | 100 | 100 | 
